Patent publication US10408813B2, “Biosensor for detecting intracellular cyclic adenosine monophosphate (cAMP) and uses thereof” (Academia Sinica, priority 2015, dated 2019)

Legend:
GPR119 = molecular target: T1, GPR119 (Homo sapiens, UniProt Q8TDV5); conditions: literature (34); read-out: reported EC50 to activate GPR119; cited from earlier work
T1 sequence (Q8TDV5 1-335): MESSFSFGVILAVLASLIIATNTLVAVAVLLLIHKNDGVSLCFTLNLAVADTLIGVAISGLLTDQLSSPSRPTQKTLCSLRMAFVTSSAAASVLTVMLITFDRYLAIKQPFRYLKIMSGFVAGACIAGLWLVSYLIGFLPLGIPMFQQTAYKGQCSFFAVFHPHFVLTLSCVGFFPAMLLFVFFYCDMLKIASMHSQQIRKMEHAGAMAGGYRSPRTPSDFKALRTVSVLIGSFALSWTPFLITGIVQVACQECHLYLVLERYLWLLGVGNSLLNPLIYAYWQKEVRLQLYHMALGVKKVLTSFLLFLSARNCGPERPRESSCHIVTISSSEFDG

GLP-1R = GLP-1R (UniProt P01275+P32301); assay: BRET cAMP response assay in RINm5F cells, GLP-1R-mediated cAMP production; assay type: cell-based, rat; conditions: for effect on cAMP responses to 200 μM of GLP-1 (7-36) amide: 9 uM OEA or 8.4 uM 2-OG; for effect on dose-response curve for GLP-1 (7-36) amide to stimulate cAMP production: lipid at 9 to 8 uM; for effect on potency of Ex-4 to stimulate cAMP production: lipid up to 27 uM; for effect on dose response curve / potency of GLP-1 (7-36) amide: lipids at concentrations indicated in FIG. 4C-E (ODA 72 uM); for effect on dose response curve of GLP-1 (7-36) amide: OA and LA at 106 and 107 uM, respectively
RINm5F cells = assay: BRET cAMP response assay, lipids present alone; assay type: cell-based, rat; conditions: 28 μM for 2-OG
His-tagged GLP-1 (7-36) = molecular target: T2, His-tagged GLP-1 (7-36) (Homo sapiens, UniProt P01275); assay: GLP-1 and OEA binding assay (3H-OEA, Cu-NTA resin capture)
T2 construct: purchased LifeTein
Method: Specific bound ^3H-OEA was obtained by subtracting the supernatant ^3H-OEA of reaction from supernatant ^3H-OEA of reaction without GLP-1. […] Copper-nitrilotriacetate resin (Cu^++-NTA), 3 uL in 30 uL of DPBS, was added to capture all the His-tagged GLP-1 (up to 60 uM in 80 uL reaction), further incubated with rotation at RT for 30 min. […] Bound ^3H-OEA=[supernatant ^3H-OEA of nonspecific binding]−[supernatant ^3H-OEA of total binding]. […] The bound ^3H-OEA and free ^3H-OEA were separated as described above, and specific binding was calculated; Bound ^3H-OEA=[supernatant ^3H-OEA of nonspecific binding reaction]−[supernatant ^3H-OEA in the total binding reaction]

[1] = molecular target: RG-cAMP sensor in RINm5F cells (Homo sapiens, UniProt O95398, F824A/R193G/T823A); assay: BRET assay with RG-cAMP sensor, titration of membrane-permeable cAMP analog
adenylyl cyclase = assay: BRET assay with RG-cAMP sensor, adenylyl cyclase activation by forskolin
GLP-1 (7-36) amide = molecular target: T3, GLP-1 (7-36) amide (Homo sapiens, UniProt P01275); assay: Limited trypsin digestion of GLP-1 (7-36) amide, residual activity by cAMP response in RINm5F cells
T3 construct: purchased LifeTein

trypsin = molecular target: T4, trypsin (Sus scrofa, UniProt P00761); assay: In vitro assay of trypsin activity in the presence of OEA; assay type: biochemical; conditions: 92 uM OEA, 0.000125% trypsin
T4 construct: purchased Life Technologies (trypsin-EDTA, inferred); assay kit from BioVision
Method: To determine whether OEA affects trypsin activity, we used the Trypsin Activity Colorimetric Test Kit (BioVision, Milpitas, Calif., USA). Briefly, 2 μL substrate was added to a well in 96-well plate containing 48 μL 0.000125% trypsin in the presence or absence of 92 uM OEA. Reactions were conducted at room temperature, and the extent of cleavage was monitored by real-time reading of optical density (OD) at 405 nm

GLP-1R-V2R membrane = molecular target: T5, GLP-1R-V2R membrane (Homo sapiens, UniProt P01275+P43220); assay: Receptor binding assay, saturation binding of 125I-GLP-1(7-36)
T5 construct: the first 440 amino acids of the GLP-1R (Met1 to Thr440); expressed in transfected cells; host or cells: U2OS osteosarcoma cells stably co-expressing β-arrestin2:GFP; membrane preparation

receptors for GIP = molecular target: T6, receptors for GIP (Rattus norvegicus, UniProt P43219); assay: BRET cAMP response assay in RINm5F cells, GIP receptor; assay type: cell-based; conditions: 5 uM antagonist (FIG. 3B)
T6 sequence (P43219 19-455): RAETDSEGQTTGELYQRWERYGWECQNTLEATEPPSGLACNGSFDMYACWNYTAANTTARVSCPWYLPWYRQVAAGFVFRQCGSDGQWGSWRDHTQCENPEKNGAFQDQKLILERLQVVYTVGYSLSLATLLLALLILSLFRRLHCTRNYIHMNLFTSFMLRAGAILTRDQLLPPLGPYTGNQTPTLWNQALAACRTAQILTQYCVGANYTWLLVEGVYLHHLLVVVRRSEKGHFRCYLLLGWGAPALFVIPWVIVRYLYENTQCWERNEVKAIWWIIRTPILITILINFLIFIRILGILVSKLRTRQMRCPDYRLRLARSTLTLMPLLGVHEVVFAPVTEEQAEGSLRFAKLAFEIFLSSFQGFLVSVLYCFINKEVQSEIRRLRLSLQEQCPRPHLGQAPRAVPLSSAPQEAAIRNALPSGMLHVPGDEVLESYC

receptors for glucagon = receptors for glucagon (Rattus norvegicus, UniProt P30082); assay: BRET cAMP response assay in RINm5F cells, glucagon receptor; assay type: cell-based; conditions: 100 uM antagonist (FIG. 3C)
[2] = RINm5F cells stably expressing RG-cAMP sensor

Sequence of GLP-1R (P32301 22-463, one chain of several): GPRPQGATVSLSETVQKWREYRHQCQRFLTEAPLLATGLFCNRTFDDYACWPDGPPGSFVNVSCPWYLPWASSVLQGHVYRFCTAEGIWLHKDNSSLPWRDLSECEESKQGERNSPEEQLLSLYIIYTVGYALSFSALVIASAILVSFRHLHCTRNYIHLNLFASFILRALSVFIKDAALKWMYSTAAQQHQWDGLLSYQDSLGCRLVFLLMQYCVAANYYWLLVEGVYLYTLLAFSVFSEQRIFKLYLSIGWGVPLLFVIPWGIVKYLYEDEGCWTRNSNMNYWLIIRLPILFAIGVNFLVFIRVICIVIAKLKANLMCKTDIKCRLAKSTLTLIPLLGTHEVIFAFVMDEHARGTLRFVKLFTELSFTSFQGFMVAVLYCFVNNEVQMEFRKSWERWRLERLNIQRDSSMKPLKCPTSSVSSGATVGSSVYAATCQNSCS
T5 sequence (P43220 with tags, fused parts or gaps limits assumed, one chain of several): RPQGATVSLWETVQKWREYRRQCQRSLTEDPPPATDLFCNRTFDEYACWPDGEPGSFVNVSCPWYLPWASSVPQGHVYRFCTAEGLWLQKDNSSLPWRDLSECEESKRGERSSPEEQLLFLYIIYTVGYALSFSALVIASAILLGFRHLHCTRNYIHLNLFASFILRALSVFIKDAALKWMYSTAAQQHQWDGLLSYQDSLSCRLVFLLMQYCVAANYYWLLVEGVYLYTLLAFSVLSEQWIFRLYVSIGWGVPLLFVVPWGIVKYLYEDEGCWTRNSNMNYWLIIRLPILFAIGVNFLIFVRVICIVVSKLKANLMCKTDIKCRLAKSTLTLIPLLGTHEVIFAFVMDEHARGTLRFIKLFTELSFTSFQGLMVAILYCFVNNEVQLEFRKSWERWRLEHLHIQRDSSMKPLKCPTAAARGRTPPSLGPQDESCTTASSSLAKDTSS
Sequence of receptors for glucagon (P30082 27-485): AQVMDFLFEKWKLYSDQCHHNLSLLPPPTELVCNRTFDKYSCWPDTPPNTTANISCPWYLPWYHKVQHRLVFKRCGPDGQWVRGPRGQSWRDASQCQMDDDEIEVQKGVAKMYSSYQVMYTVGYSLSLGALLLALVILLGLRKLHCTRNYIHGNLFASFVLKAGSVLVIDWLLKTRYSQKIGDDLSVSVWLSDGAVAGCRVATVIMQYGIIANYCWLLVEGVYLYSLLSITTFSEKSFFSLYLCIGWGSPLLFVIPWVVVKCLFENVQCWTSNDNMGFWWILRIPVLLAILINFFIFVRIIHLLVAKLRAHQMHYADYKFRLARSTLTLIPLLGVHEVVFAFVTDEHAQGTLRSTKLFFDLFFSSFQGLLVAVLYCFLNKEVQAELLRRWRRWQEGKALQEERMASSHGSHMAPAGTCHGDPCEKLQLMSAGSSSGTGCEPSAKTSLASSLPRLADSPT
T4 sequence (P00761 9-231): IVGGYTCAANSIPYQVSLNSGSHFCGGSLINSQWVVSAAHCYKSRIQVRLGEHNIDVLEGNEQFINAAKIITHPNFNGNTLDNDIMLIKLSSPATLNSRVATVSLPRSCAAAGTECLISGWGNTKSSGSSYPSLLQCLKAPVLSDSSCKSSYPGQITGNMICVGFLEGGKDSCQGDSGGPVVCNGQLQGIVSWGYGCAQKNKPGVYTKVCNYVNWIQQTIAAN

Q: For `CCCCCCCC/C=C\CCCCCCCC(=O)OC(CO)CO` [2-OG, 2-oleoylglycerol], which EC50 (GPR119) is on record?
A: 2900 nM

Q: What about the “effect on cAMP responses to 200 μM of GLP-1 (7-36) amide” value (GLP-1R) of the same compound?
A: remarkably enhanced

Q: What about the “effect on dose-response curve for GLP-1 (7-36) amide to stimulate cAMP production” value (GLP-1R) of the same compound?
A: markedly left-shifted

Q: And the “effect on potency of Ex-4 to stimulate cAMP production” value (GLP-1R)?
A: unaltered

Q: What about the “cAMP response to lipid present alone” value (RINm5F cells) of the same compound?
A: did not elicit cAMP responses

Q: What about the Ki (His-tagged GLP-1 (7-36)) of the same compound?
A: 100 ± 30 nM

Q: Which results are given for `COC1C2OP(=O)(OCOC(C)=O)OCC2OC1n1c(Br)nc2c(N)ncnc21` (stereo not shown) [8-Br-2-O-Me-cAMP-AM, 8-Br-2′-O-Me-cAMP-AM]?
A: concentration at which half maximal reduction of BRET ratio is elicited (EC50) [1, 2]: 2.6 µM; BRET ratio reduction ([1]; concentration change from 0.2 μM to 50 μM): 0.45 unit

Q: Which “effect on dose response curve / potency of GLP-1 (7-36) amide” value (from here on “effect on dose response curve / potency”) (GLP-1R) does the source give for `CC/C=C\C/C=C\C/C=C\CCCCCCCC(=O)O` [ALA, α-linolenic acid] here?
A: did not show such an effect

Q: For `CCCCC/C=C\C/C=C\CCCCCCCC(=O)O` [LA, linoleic acid], which “effect on dose response curve of GLP-1 (7-36) amide” value (GLP-1R) is on record?
A: consistently but mildly left-shifted

Q: Which “effect on forskolin-elicited BRET response” value (adenylyl cyclase; 250 μM inhibitor) does the source give for `Cl.c1ccc(C2CCCC2NC2=NCCCCCCCCCCC2)cc1` (stereo not shown) [MDL-12,330A] here?
A: eliminated

Q: Which “effect on dose response curve of GLP-1 (7-36) amide” value (GLP-1R) does the source give for `CCCCCCCC/C=C\CCCCCCCC(=O)O` [OA, oleic acid] here?
A: consistently but mildly left-shifted

Q: Which “effect on dose response curve / potency” value (GLP-1R) does the source give for `CCCCCCCC/C=C\CCCCCCCC(=O)NCCc1ccc(O)c(O)c1` [ODA, n-oleoyldopamine] here?
A: did not affect GLP-1 potency

Q: Which results are given for `CCCCCCCC/C=C\CCCCCCCC(=O)NCCO` [OEA, oleoylethanolamide]?
A: EC50 (GPR119): 2900 nM; factor of reduction of residual activity of GLP-1 (7-36) amide after trypsin digestion (GLP-1 (7-36) amide; 0.00067% trypsin, OEA increased from 1 uM to 92 uM): more than 40; factor of reduction of GLP-1 activity after trypsin cleavage (GLP-1 (7-36) amide; trypsin cleavage in the presence of 92 uM OEA): more than 300; effect on cAMP responses to 200 μM of GLP-1 (7-36) amide (GLP-1R): remarkably enhanced; effect on dose-response curve for GLP-1 (7-36) amide to stimulate cAMP production (GLP-1R): markedly left-shifted; effect on potency of Ex-4 to stimulate cAMP production (GLP-1R): unaltered; effect on innate trypsin activity (trypsin): does not affect the innate trypsin activity; cAMP response to lipid present alone (RINm5F cells): did not elicit cAMP responses; Bmax of 125I-GLP-1 (GLP-1R-V2R membrane; in the presence of 9.2 uM OEA): 51±6.5 pmole/mg of membrane

Q: Which “effect on dose response curve / potency” value (GLP-1R) does the source give for `CCCCCCCCCCCCCCCC(=O)NCCO` [PEA, palmitoylethanolamide] here?
A: did not affect GLP-1 potency

Q: Which “effect on dose response curve / potency” value (GLP-1R) does the source give for `CCCCCCCCCCCCCCCCCC(=O)O` [SA, stearic acid] here?
A: did not show such an effect

Q: For `CCCCCCCCCCCCCCCCCC(=O)NCCO` [SEA, stearoylethanolamide], which “effect on trypsin digestion of GLP-1 (7-36) amide” value (GLP-1 (7-36) amide; 1 uM to 92 uM lipid, 0.00067% trypsin) is on record?
A: did not affect trypsin digestion

Q: And the “effect on dose response curve / potency” value (GLP-1R)?
A: did not affect GLP-1 potency

Q: And the “effect on binding of 3H-OEA to His-tagged GLP-1(7-36)” value (His-tagged GLP-1 (7-36); competition assay)?
A: did not affect the binding

Q: For `[3H]/C(CCCCCCCC)=C(\[3H])CCCCCCCC(=O)NCCO` [^3H-OEA, Oleoyl [9,10-^3H]ethanolamide, reference compound], which “specific binding to GLP-1 receptor” value (GLP-1R-V2R membrane) is on record?
A: not able to observe detectable specific binding

Q: What about the “concentration of 3H-OEA to achieve half-maximal binding” value (His-tagged GLP-1 (7-36); 0.1 uM His-tagged GLP-1 (7-36), estimated) of the same compound?
A: 0.28 ± 0.07 µM

Q: What does the source list for `C=C[C@@]1(C)CC(=O)[C@]2(O)[C@@]3(C)[C@@H](O)CCC(C)(C)[C@@H]3[C@H](O)[C@H](OC(C)=O)[C@@]2(C)O1` [forskolin]?
A: EC50 for reduction of BRET ratio (adenylyl cyclase; [2]): 70 nM; BRET ratio reduction, basal cAMP level to maximally stimulated (adenylyl cyclase; maximal forskolin stimulation): 0.3 unit

Q: With `CCCCC/C=C\C/C=C\C/C=C\CCCCC(=O)O` [γ-LA, γ-linolenic acid] as the compound, how does the “effect on dose response curve / potency” value (GLP-1R) read?
A: did not show such an effect

Q: What does the source list for “Ex-9: GLP-1 receptor antagonist exendin 9 [reference compound]”?
A: effect of antagonist on cAMP response to GLP-1 (7-36) amide (GLP-1R; 500 nM antagonist (FIG. 3A)): curtailed; lipid enhancement and cAMP responses with GLP-1 receptor signaling blocked (GLP-1R; 500 nM exendin 9, GLP-1 (7-36) amide with OEA or 2-OG): barely detectable

Q: For “GIP(8-42): GIP antagonist, SEQ ID NO: 14 (SDYSIAMDKIHQQDFVNWLLAQKGKKNDWKHNITQ; GIP 8-42)”, which “effect of antagonist on cAMP response to GIP” value (receptors for GIP) is on record?
A: curtailed

Q: Which “concentration of GLP-1 to achieve half-maximal binding of OEA” value (His-tagged GLP-1 (7-36); 0.2 uM 3H-OEA, estimated) does the source give for “His-tagged GLP-1 (7-36): SEQ ID NO: 6, six consecutive histidine residues tagged to the C-terminal of GLP-1 (7-36) peptide (HAEGTFTSDVSSYLEGQAAKEFIAWLVKGRHHHHHH; His-tagged GLP-1 (7-36)) [reference compound]” here?
A: 0.16 ± 0.05 µM

Q: Which “effect of antagonist on cAMP response to glucagon” value (receptors for glucagon) does the source give for “[des-His1,Glu9]-glucagon amide: glucagon antagonist” here?
A: curtailed
